Laboratory results published in US9006139B2, “Active compound combinations” (Bayer Intellectual Property GmbH, priority 2009, dated 2015).

Key:
Type in all cases: in vivo
[1] = tested on: Fusarium graminearum; conditions: Table L; 62.5 ppm a.i.
[2] = tested on: Blumeria graminis fsp. tritici; assay: Blumeria test (wheat)/preventive; conditions: Table G; 62.5 ppm a.i.
Experimental: (§1) Solvent: 49 parts by weight of n,n-dimethylacetamid
(§2) Emulsifier: 1 part by weight of alkylaryl polyglycol ether
(§3) To produce a suitable preparation of active compound, 1 part by weight of active compound or active compound combination is mixed with the stated amounts of solvent and emulsifier, and the concentrate is diluted with water to the desired concentration. To test for preventive activity, young plants are sprayed with the preparation of active compound or active compound combination at the stated rate of application. After the spray coating has been dried, the plants are dusted with spores of Blumeria graminis fsp. tritici. The plants are placed in the greenhouse at a temperature of approximately 18° C. and a relative atmospheric humidity of approximately 80% to promote the development of mildew pustules. The test is evaluated 7 days after the inoculation. 0% means an efficacy which corresponds to that of the untreated control, while an efficacy of 100% means that no disease is observed.

[3] = tested on: Alternaria solani; assay: Alternaria test (tomatoes)/protective; conditions: Table E, test 2, 2.5 ppm a.i.; for pest or weed control at 2.5 ppm: Alternaria solani, 72 h, read-out: Efficacy in % found
Experimental: (§4) Solvent: 24.5 parts by weight of acetone
(§5) • 24.5 parts by weight of dimethylacetamide Emulsifier: 1 part by weight of alkylaryl polyglycol ether
To produce a suitable preparation of active compound, 1 part by weight of active compound is mixed with the stated amounts of solvent and emulsifier, and the concentrate is diluted with water to the desired concentration. To test for protective activity, young plants are sprayed with the preparation of active compound at the stated rate of application. After the spray coating has dried on, the plants are inoculated with an aqueous spore suspension of Alternaria solani. The plants are then placed in an incubation cabinet at approximately 20° C. and a relative atmospheric humidity of 100%. The test is evaluated 3 days after the inoculation. 0% means an efficacy which corresponds to that of the control while an efficacy of 100% means that no disease is observed.

[4] = tested on: Puccinia triticina; assay: Puccinia triticina-test (wheat)/preventive; conditions: Table M; 62.5 ppm a.i.
Experimental: as §1, §2
as §3, with “sprayed” for “dusted”, “a spore suspension” for “spores”, “Puccinia triticina. The plants remain for 48 hours in an incubation cabinet at approximately 20° C. and a relative atmospheric humidity of approximately 100%.” for “Blumeria graminis fsp. tritici.”, “20°” for “18°”, “80%.” for “80% to promote the development of mildew pustules.”, “8” for “7”

[5] = tested on: Botrytis cinerea; assay: Botrytis test (beans)/protective; conditions: Botrytis cinerea, 48 h, Table F, test 3, read-out: Efficacy in % found
Experimental: as §4, §5
To produce a suitable preparation of active compound, 1 part by weight of active compound is mixed with the stated amounts of solvent and emulsifier, and the concentrate is diluted with water to the desired concentration. To test for protective activity, young plants are sprayed with the preparation of active compound. After the spray coating has dried on, 2 small pieces of agar covered with growth of Botrytis cinerea are placed on each leaf. The inoculated plants are placed in a darkened chamber at 20° C. and a relative atmospheric humidity of 100%. 2 days after the inoculation, the size of the lesions on the leaves is evaluated. 0% means an efficacy which corresponds to that of the control, while an efficacy of 100% means that no disease is observed.

[6] = tested on: Sphaerotheca fuliginea; assay: Sphaerotheca test (cucumbers)/protective; conditions: Table C, test 4; 5 ppm a.i.
Experimental: as §4, §5
To produce a suitable preparation of active compound, 1 part by weight of active compound is mixed with the stated amounts of solvent and emulsifier, and the concentrate is diluted with water to the desired concentration. To test for protect activity, young plants are sprayed with the preparation of active compound at the stated rate of application. After the spray coating has dried on, the plants are inoculated with an aqueous spore suspension of Sphaerotheca fuliginea. The plants are then placed in a greenhouse at approximately 23° C. and a relative atmospheric humidity of approximately 70%. The test is evaluated 7 days after the inoculation. 0% means an efficacy which corresponds to that of the control, while an efficacy of 100% means that no disease is observed.

Row | SMILES | Efficacy in % found [2] | pest or weed control at 2.5 ppm [3] | Efficacy in % found [4] | further results
1 | CC1(C)CCC(Cc2ccc(Cl)cc2)C1(O)Cn1cncn1 (centres unmarked) [1.30, metconazole] |  |  |  | Efficacy in % found [1]: 0%
2 | CCCC1COC(Cn2cncn2)(c2ccc(Cl)cc2Cl)O1 (centres unmarked) [(1.40), propiconazole] | 38% |  |  | 
3 | CC(C)CC(C)c1sccc1NC(=O)c1cn(C)nc1C(F)(F)F (centres unmarked) [(2.20), penthiopyrad] |  | 50% | 70% | pest or weed control at 2.5 ppm ([5]; 2.5 ppm a.i.): 65%
4 | CNC(=O)/C(=N/OC)c1ccccc1Oc1ccccc1 [(3.10), metominostrobin] | 13% | 15% |  | pest or weed control at 50 ppm ([5]; 50 ppm a.i.): 55%
5 | CO/C=C(/C(=O)OC)c1ccccc1COc1cccc(C(F)(F)F)n1 [(3.12), picoxystrobin] |  |  | 80% | Efficacy in % found [3]: 60%; Efficacy in % found [6]: 62%
